{"source": "paper PMC11339798", "about": "“Dual inhibitors of Pseudomonas aeruginosa virulence factors LecA and LasB” (Chemical Science, 2024)", "key": {"LasB [1]": {"molecular_target": "T1, LasB (Pseudomonas aeruginosa, UniProt Q02RJ6)", "T1 construct": "P. aeruginosa PA14 culture supernatant; made in house; host or cells: native secreted enzyme purified from P. aeruginosa PA14 culture supernatant (not recombinant)", "T1 sequence (Q02RJ6 198-498)": "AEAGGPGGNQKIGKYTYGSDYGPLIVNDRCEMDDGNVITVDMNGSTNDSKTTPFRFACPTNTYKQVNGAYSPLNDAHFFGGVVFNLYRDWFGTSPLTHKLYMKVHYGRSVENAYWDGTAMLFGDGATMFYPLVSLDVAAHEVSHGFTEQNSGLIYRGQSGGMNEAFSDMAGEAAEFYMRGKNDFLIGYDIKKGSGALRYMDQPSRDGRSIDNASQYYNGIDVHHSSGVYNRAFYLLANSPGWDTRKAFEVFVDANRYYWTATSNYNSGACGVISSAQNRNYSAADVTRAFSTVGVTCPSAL", "assay": "FRET-based in vitro LasB inhibition (proteolysis) assay", "assay_type": "biochemical, P. aeruginosa PA14", "experimental": "The LasB activity of the thiol derivatives 11, 12, 17, 18, 24 and 25 was tested using a functional FRET-based in vitro proteolysis assay (Fig. 4A). […]\nExpression and purification of LasB and LecA\nLecA was expressed recombinantly using E. coli pET25-pail, whereas LasB was isolated from P. aeruginosa PA14 culture supernatant as described previously. 1,2 […]\nIn vitro inhibition assay for LasB\nThe in vitro inhibition assay was performed as described previously,2 using purified LasB (final concentration 0.3 nM), the fluorogenic substrate 2-aminobenzoyl-Ala-Gly-Leu-Ala-4-nitrobenzylamide (purchased from Peptides International (Louisville, KY, USA) or Vivitide, LLC (Gardner, MA, USA), final concentration 150 µM)) in assay buffer (50 mM Tris, pH 7.2, 2.5 mM CaCl2, 0.075% Pluronic F-127, 5% DMSO). Fluorescence was measured using a CLARIOstar plate reader (BMG Labtech, Ortenberg, Germany). IC50 values were calculated using GraphPad Prism 8 (GraphPad Software, San Diego, CA, USA) from at least three independent experiments performed in duplicate."}, "LecA": {"molecular_target": "T2, LecA (Pseudomonas aeruginosa, UniProt Q05097)", "T2 construct": "made in house; host or cells: E. coli (plasmid pET25-pail)", "T2 sequence (Q05097 whole entry)": "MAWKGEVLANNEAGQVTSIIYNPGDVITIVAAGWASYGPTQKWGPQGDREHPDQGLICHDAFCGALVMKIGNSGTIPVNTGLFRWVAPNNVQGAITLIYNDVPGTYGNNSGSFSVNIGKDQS", "assay": "Surface plasmon resonance direct LecA binding assay (immobilized LecA)", "design": "species or system P. aeruginosa", "details": "for time to reach equilibrium binding with immobilized LecA / k a / k d: SPR; for k a / k d: immobilized LecA", "from_the_text": "Therefore, we measured the LecA affinity of thiol derivatives 17, 18, 24 and 25 and disulfides 26a, 26b and 27 using surface plasmon resonance (SPR) with LecA covalently immobilized on a sensor chip via amide coupling (Fig. 5 and Table 1). […] Thiols 17, 18, 24 and 25 reached equilibrium binding within 60 s of interaction with immobilized LecA, followed by their dissociation with moderate off-rates. […] Due to the very small off-rates for 26a, 26b and 27, these values have been calculated based on the response at […] of the injected compound and monitoring their dissociation for 30 min (Fig. S2 ^†). The observed very tight binding to immobilized LecA required optimization of the protein surface regeneration procedure. Effective conditions were identified as one injection of 50 mm isopropyl β-D-thiogalactoside in the running buffer, followed by one injection of 20 mm EDTA disodium salt in water. The regenerated chip surface was controlled using an injection of 1 to ensure that the activity of LecA was maintained.\nSurface plasmon resonance direct LecA binding assay\nSPR experiments were performed on a Reichert 2-channel SPR SR7500DC (Reichert Technologies Life Sciences, Buffalo, NY, USA) at 25 °C. For LecA immobilization, the surface of a HC1000M sensor chip (XanTec bioanalytics GmbH, Düsseldorf, Germany) was preequilibrated with borate buffer (1 M NaCl, 0.1 M sodium borate pH 9.0), followed by activation of the polycarboxylate hydrogel with 0.2 M N-hydroxysuccinimide (NHS) and 0.4 M 1-ethyl-3-(3-dimethylaminopropyl)carbodiimide hydrochloride (EDC‧HCl) in MilliQ water in both channels for 240 s (flow rate 10 μL/min) until the binding response reached 1200 RU.\nThen, LecA (100 μg/mL) in 10 mM sodium acetate pH 3.6 was injected on the activated chip surface of one channel (injection time 420 s, flow rate 10 μL/min) and 6000 RU of LecA were immobilized. Unreacted NHS esters in both channels were blocked with 1 M ethanolamine hydrochloride in MilliQ water pH 8.5 (injection time 360 s, flow rate 10 μL/min).\nTest compound stock solutions were prepared in DMSO (20 mM stocks for monovalent LecA inhibitors, 20 µM stocks for divalent LecA inhibitors) and were subsequently diluted in 10 mM phosphate buffer (pH 7.4, 2.7 mM KCl, 137 mM NaCl, 100 μM CaCl2) to obtain solutions with […]\nMonovalent inhibitors 17, 18, 24 and 25 were injected for 120 s (flow rate 50 μL/min) at concentrations ranging from 0.39–100 µM. Divalent inhibitors 26a, 26b and 27 were injected for 120 s (flow rate 50 μL/min) at concentrations 50–350 nM. The chip surface was regenerated after each inhibitor injection by one injection of 50 mM IPTG in running buffer (10 mM phosphate buffer, pH 7.4, 2.7 mM KCl, 137 mM NaCl, 100 μM CaCl2, 2% DMSO) followed by one injection 20 mM EDTA disodium salt in MilliQ water, and then followed by three injections of the running buffer (injection time 120 s, flow rate 50 μL/min). 100 µM pNP-Gal (1) in running buffer was injected before each analyte to monitor and ensure chip regeneration and […]\nAffinity/equilibrium analysis was performed for 1 on the same chip. A stock solution of 1 (10 mM in PBS/CaCl2 buffer) was prepared, then diluted to the required concentrations in running buffer and injected at 1.56–400 µM (injection time 60 s, flow rate 50 μL/min) without regeneration steps. Data analysis was performed using TraceDrawer software (Ridgeview Instruments) using a 1:1 binding model to fit the experimental data. Spikes at the end of the injections were removed in TraceDrawer during the data analysis."}, "[2]": {"tested_on": "LecA-FITC binding to human A549 cells", "assay": "Inhibition of LecA-FITC adhesion to A549 cells by fluorescence microscopy", "assay_type": "cell-based", "details": "concentrations tested 1-100 µM, 10 μM LecA-FITC, 4 °C, 30 min", "experimental": "LecA-mediated cell adhesion is crucial for the initial infection and host-cell invasion of P. aeruginosa. Therefore, compounds 1 and 2, a combination of 1+2 and the dual inhibitor 12 were assessed for their ability to inhibit LecA-binding to human A549 cells. 10 μM of LecA-FITC and different concentrations of the respective compounds were incubated at 4 °C for 30 min with confluent A549 cells.\n10 min, facilitating the separation of bacterial cells from the supernatant. The latter was filtered through a 0.22 µm sterile filter and stored at –80 °C until further use. […]\nCO2. […] The plates were then incubated for an additional 30 min at 37 °C and then, the UV absorbance was measured using a PHERAstar microplate reader. The test samples were read at a wavelength of 550 nm, while the blank was read at 620 nm. At last, the data were statistically analyzed and presented graphically using GraphPad Prism 9 (Figure S4 and S5). […]\nhave any negative effects. The plate was then incubated at 4 °C for 30 min and wells were washed 5 times with PBS prior to imaging via fluorescence microscopy.\nFluorescence image acquisition, processing, and quantification\nFluorescence images were captured using an inverted fluorescence microscope (Leica DMi8) equipped with a 20x objective (HC PL APO CS2 20x/0.75 IMM UV), an FITC filter cube (EX: […]"}, "A549 cells": {"tested_on": "A549 cells", "assay": "Inhibition of LasB-dependent cytotoxicity of P. aeruginosa PAO1 culture supernatant on A549 cells (MTT)", "assay_type": "cell-based, human", "details": "1 μM compound, 10% (v/v) PAO1 supernatant", "experimental": "Next, we set out to analyze the ability of the dual inhibitor 12 and the individual treatment or combination of galactoside 1 and thiol 2 to reduce LasB-dependent cytotoxicity from P. aeruginosa PAO1 culture supernatant on A549 cells. None of the investigated compounds influenced A549 cell viability at 100 μM in the absence of bacterial culture supernatant (Fig. S4 ^†). […]\nIn vitro evaluation of 12 and a combination of 1 and 2 using P. aeruginosa culture supernatant and A549 cells in a cell viability assay\nThe A549 cell line, derived from human lung adenocarcinoma, was grown in Dulbecco's Modified Eagle Medium (DMEM) supplemented with 10% Fetal Bovine Serum (FBS) and 1% penicillin-streptomycin. The cells were cultured following standard protocols for cell […]\nTo prepare the bacterial culture supernatant, individual flasks containing 15 mL of lysogeny broth (LB) culture medium were inoculated with PAO1 or PAO1 ΔlasB strains. Culture flasks were placed on a shaker and incubated at 37 °C and 180 rpm overnight for 18 hours. Following incubation, the bacterial cultures were subjected to centrifugation at 4 °C and 5000 rpm for […]\n10 min, facilitating the separation of bacterial cells from the supernatant. The latter was filtered through a 0.22 µm sterile filter and stored at –80 °C until further use.\nIn a flat bottom 96-well plate (Corning™ Costar™), each well was seeded with 2.5–3.5*10 3 cells in 100 µL DMEM/FCS and then incubated at a temperature of 37 °C with 5% CO2 for 24 hours. Then, compounds 12 and 1 combined with 2 in concentrations of 100 µM, 10 µM, and 1 µM were mixed with 10% (v/v) of culture supernatant of P. aeruginosa PAO1 (DSM 22644, ATCC 15692) in DMEM/FCS. To minimize the potential negative effect of DMSO, the compound was initially dissolved in 99.9% DMSO, and a final assay concentration of 0.5% DMSO was applied. Additionally, the cells were exposed to 10% (v/v) PAO1 ΔlasB culture supernatant to analyze the effect caused by LasB, while DMEM/FCS without any treatment served as a control. The plates were then incubated at 37 °C with 5% CO2 for 24 hours before conducting the MTT assay.\nTo assess cell viability, the medium in the well plates was aspirated and a single wash was performed using 100 µL of phosphate buffered saline, pH 7.4 (PBS). A solution of 5 mg MTT (3-(4,5-dimethylthiazol-2-yl)-2,5-diphenyl tetrazolium bromide) per mL PBS was prepared and diluted to a concentration of 10% (v/v) in DMEM/FCS. Subsequently, 100 µL of this MTT solution was added to each well, and the plates were incubated at 37 °C for 3 hours with 5%\nCO2. After incubation, the MTT solution was carefully removed, and the formazan crystals were dissolved by adding 150 µL of lysis solution (250 mL DMSO, 25 g SDS, and 1.25 mL AcOH) to each well. The plates were then incubated for an additional 30 min at 37 °C and then, the UV absorbance was measured using a PHERAstar microplate reader. The test samples were read at a wavelength of 550 nm, while the blank was read at 620 nm. At last, the data were statistically analyzed and presented graphically using GraphPad Prism 9 (Figure S4 and S5).\nEvaluation of compounds 1, 2 and 12 in inhibiting LecA adhesion to A549 cells via […]\nThe A549 cell line were cultured following the protocols for cell maintenance described above.\nIn a flat-bottom cell culture black 96-well plate (Greiner Bio-One, #Cat 655090) each well was seeded with 1*104 cells in 100 µL DMEM/FCS and subsequently, incubated overnight at 37 °C with 5% CO2. […]"}, "LasB [3]": {"molecular_target": "T1, LasB", "details": "previously observed activities of reported inhibitors; cited from earlier work"}}, "note": "Read-outs that look alike come from different tables or passages of the source.", "data": [{"smiles": "O=C(Nc1ccc(S[C@@H]2O[C@H](CO)[C@H](O)[C@H](O)[C@H]2O)cc1)[C@H](S)Cc1ccccc1", "note": "[Compound 17]", "values": [{"measurement": "IC50", "setting": "LasB [1]", "value": 730, "unit": "nM"}, {"measurement": "Kd", "setting": "LecA", "value": "1300 ± 540", "unit": "nM"}, {"measurement": "time to reach equilibrium binding with immobilized LecA", "setting": "LecA", "value": "≤ 60", "unit": "s"}, {"measurement": "k a", "setting": "LecA", "value": "0.71 ± 0.14 ×10^4 M^−1 s^−1"}, {"measurement": "k d", "setting": "LecA", "value": "86 ± 20 ×10^−4 s^−1"}]}, {"smiles": "CC(C)C[C@H](S)C(=O)Nc1ccc(S[C@@H]2O[C@H](CO)[C@H](O)[C@H](O)[C@H]2O)cc1", "note": "[Compound 25]", "values": [{"measurement": "IC50", "setting": "LasB [1]", "value": 770, "unit": "nM"}, {"measurement": "Kd", "setting": "LecA", "value": "1000 ± 590", "unit": "nM"}, {"measurement": "time to reach equilibrium binding with immobilized LecA", "setting": "LecA", "value": "≤ 60", "unit": "s"}, {"measurement": "k a", "setting": "LecA", "value": "0.90 ± 0.31 ×10^4 M^−1 s^−1"}, {"measurement": "k d", "setting": "LecA", "value": "85 ± 2 ×10^−4 s^−1"}]}, {"smiles": "O=C(Nc1ccc(S[C@@H]2O[C@H](CO)[C@H](O)[C@H](O)[C@H]2O)cc1)[C@@H](S)Cc1ccccc1", "note": "[Compound 24]", "values": [{"measurement": "IC50", "setting": "LasB [1]", "value": 220, "unit": "nM"}, {"measurement": "Kd", "setting": "LecA", "value": "840 ± 160", "unit": "nM"}, {"measurement": "time to reach equilibrium binding with immobilized LecA", "setting": "LecA", "value": "≤ 60", "unit": "s"}, {"measurement": "k a", "setting": "LecA", "value": "0.88 ± 0.23 ×10^4 M^−1 s^−1"}, {"measurement": "k d", "setting": "LecA", "value": "72 ± 5 ×10^−4 s^−1"}]}, {"smiles": "CC(C)C[C@@H](S)C(=O)Nc1ccc(S[C@@H]2O[C@H](CO)[C@H](O)[C@H](O)[C@H]2O)cc1", "note": "[Compound 18]", "values": [{"measurement": "IC50", "setting": "LasB [1]", "value": 510, "unit": "nM"}, {"measurement": "Kd", "setting": "LecA", "value": "630 ± 290", "unit": "nM"}, {"measurement": "time to reach equilibrium binding with immobilized LecA", "setting": "LecA", "value": "≤ 60", "unit": "s"}, {"measurement": "k a", "setting": "LecA", "value": "1.41 ± 0.47 ×10^4 M^−1 s^−1"}, {"measurement": "k d", "setting": "LecA", "value": "82 ± 11 ×10^−4 s^−1"}]}, {"smiles": "Cc1ccc(NC(=O)C(S)CC(C)C)cc1", "note": "(centres unmarked) [Compound 2, reference compound]", "values": [{"measurement": "inhibition of binding of LecA-FITC to A549 cells", "setting": "[2]", "value": "failed to do so"}, {"measurement": "A549 cell viability under PAO1 culture supernatant", "setting": "A549 cells", "value": "neither 1 nor 2 nor their combination had any effect"}]}, {"smiles": "O=C(Nc1ccccc1)C(S)Cc1ccccc1", "note": "(centres unmarked) [Compound 3]", "values": [{"measurement": "IC50", "setting": "LasB [3]", "value": 1200, "unit": "nM"}]}]}
